Among the test systems are 786-0; A549; ACHN; BT-549; CAKI-1; COLO 205; DU-145; HCT-15; HOP-62; IGROV-1; K562; MDA-MB-231; MDA-MB-435; MOLT-4; NCI-H23; NCI-H460; OVCAR-4; SNB-75; SK-MEL-2.
Common to all, as to assay: inhibition of tumour cell growth, NCI panel, 48 h

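In this assay, cells in 96-well plates receive the compound at five concentrations for 48 hours. Endpoints are linearly interpolated between the surrounding concentrations. GI50 marks 50% less growth.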 The source made the active and inactive calls. Rule as the data show it: active = GI50 up to about 1.1 µM and inactive = higher.

As for `C=O.NNCCc1n[nH]c(=O)n1N`, the GI50 in the assay on 786-0, in the assay on A549, with ACHN, in the assay with BT-549, with CAKI-1 and in the assay on COLO 205 was > 100 µM (inactive) in each case. Also, the GI50 is > 100 µM (inactive) in the assay with DU-145; greater than 100 µM in the assay on HCT-15; > 100 µM (inactive) in the assay on HOP-62; > 100 µM (inactive) with IGROV-1; > 100 µM (inactive) in the assay with K562; > 100 µM (inactive) with MDA-MB-231. Besides, the GI50 in the assay with MDA-MB-435 is > 100 µM (inactive); with MOLT-4, > 100 µM (inactive); with NCI-H23, > 100 µM (inactive); with NCI-H460 it was > 100 µM (inactive); in the assay with OVCAR-4 it was > 100 µM (inactive); in the assay on SNB-75, 97.7 µM (inactive).

With `C=CC/N=C(\S)Nc1sc2c(c1C(=O)OCC)CC(C)CC2` (stereo not drawn), the GI50 in the assay on 786-0 was 33.9 µM (inactive); in the assay on A549 it was 24.8 µM (inactive); with ACHN, 22.9 µM (inactive); in the assay with BT-549 it was 35.6 µM (inactive); in the assay with CAKI-1, 36.1 µM (inactive); in the assay with COLO 205, 18.6 µM (inactive). Moreover, the GI50 in the assay on DU-145 is 30.6 µM (inactive); in the assay with HCT-15 it was 31.8 µM; in the assay on HOP-62, 23.1 µM (inactive); with IGROV-1 it was 33.3 µM (inactive); with K562, 33 µM (inactive); in the assay on MDA-MB-231 it was 24.8 µM (inactive). The GI50 in the assay on MDA-MB-435 was 32 µM (inactive); with MOLT-4, 28.8 µM (inactive); in the assay on NCI-H23 it was 32.7 µM (inactive); in the assay with NCI-H460, 20.8 µM (inactive); in the assay on OVCAR-4, 35.2 µM (inactive); in the assay with SK-MEL-2, 21.2 µM (inactive). Further, in the assay with SNB-75, the GI50 was 24.3 µM (inactive).

For `Cc1ccc(C(=O)N(C(C)C)C(C)C)cc1/N=N/N(C)C`, the GI50 is > 100 µM (inactive) in the assay with 786-0; > 100 µM (inactive) in the assay on A549; > 75.5 µM (inactive) in the assay with ACHN; > 100 µM (inactive) in the assay on BT-549; > 100 µM (inactive) in the assay on CAKI-1; > 100 µM (inactive) in the assay with COLO 205. The GI50 is > 100 µM (inactive) in the assay with DU-145; greater than 82.6 µM with HCT-15; > 100 µM (inactive) in the assay with HOP-62; > 100 µM (inactive) in the assay with IGROV-1; 38.8 µM (inactive) with K562; > 100 µM (inactive) in the assay with MDA-MB-231. Moreover, the GI50 in the assay on MDA-MB-435 is > 100 µM (inactive); with MOLT-4 it was 45.3 µM (inactive); in the assay with NCI-H23 it was 41 µM (inactive); with NCI-H460, > 100 µM (inactive); with OVCAR-4, > 100 µM (inactive); with SK-MEL-2, > 100 µM (inactive).

Turning to `CC1(C)CC2(C)CC1CC2O` (stereo not drawn), the GI50 in the assay on 786-0, in the assay on A549, in the assay on BT-549, in the assay on CAKI-1, in the assay on COLO 205 and with DU-145 was > 100 µM (inactive) throughout. Further, the GI50 in the assay with HCT-15 was greater than 100 µM; in the assay on HOP-62 it was > 100 µM (inactive); with IGROV-1, > 100 µM (inactive); with K562, > 100 µM (inactive); with MDA-MB-231, > 100 µM (inactive); in the assay with MDA-MB-435, > 100 µM (inactive). The GI50 in the assay with MOLT-4, with NCI-H23, in the assay on OVCAR-4 and in the assay on SNB-75 was > 100 µM (inactive) in each case.

Turning to `O=C(O)CNC(=O)c1ccc2cc(C(=O)N3CC(CCl)c4ccc([N+](=O)[O-])cc43)[nH]c2c1` (stereo not drawn), the GI50 with 786-0, in the assay with A549, in the assay with ACHN, with BT-549, in the assay with CAKI-1 and in the assay on COLO 205 was > 100 µM (inactive) in each case. The GI50 in the assay on DU-145 was > 100 µM (inactive); in the assay with HCT-15, greater than 100 µM; in the assay on IGROV-1, > 100 µM (inactive); with MDA-MB-231, > 100 µM (inactive); in the assay on MDA-MB-435, > 100 µM (inactive); with MOLT-4 it was > 100 µM (inactive). Besides, the GI50 in the assay with NCI-H23, in the assay with NCI-H460, in the assay on OVCAR-4, in the assay on SK-MEL-2 and in the assay on SNB-75 was > 100 µM (inactive) each time.

Turning to `CC(C)(C)OC(=O)N1CCC23CCCC2C(=O)CC=C13` (stereo not drawn), the GI50 in the assay on 786-0 was > 100 µM (inactive); in the assay on A549 it was > 100 µM (inactive); in the assay on ACHN it was > 100 µM (inactive); in the assay on BT-549, > 100 µM (inactive); in the assay with CAKI-1 it was > 100 µM (inactive); in the assay with COLO 205 it was 70.8 µM (inactive). The GI50 in the assay on DU-145 was > 100 µM (inactive); in the assay on HCT-15, greater than 100 µM; with HOP-62 it was > 100 µM (inactive); in the assay with IGROV-1, > 100 µM (inactive); in the assay with K562 it was > 100 µM (inactive); in the assay with MDA-MB-231, > 100 µM (inactive). Also, the GI50 in the assay on MDA-MB-435, in the assay on MOLT-4, in the assay on NCI-H23, in the assay on NCI-H460, in the assay with OVCAR-4 and in the assay on SK-MEL-2 was > 100 µM (inactive) in each case. Moreover, the GI50 in the assay with SNB-75 is > 100 µM (inactive).

With `CCCCOC(=O)C(=O)C(CC(C(=O)Cc1ccccc1)c1ccccc1)C(=O)C=C(C)C` (stereo not drawn), the GI50 in the assay with 786-0, in the assay with A549, with ACHN, in the assay on BT-549, with CAKI-1 and in the assay with COLO 205 was > 100 µM (inactive) each time. Besides, the GI50 in the assay with DU-145 is > 100 µM (inactive); in the assay with HCT-15, greater than 100 µM; in the assay on HOP-62 it was > 100 µM (inactive); in the assay with IGROV-1 it was > 100 µM (inactive); in the assay with MDA-MB-231 it was > 100 µM (inactive); with MDA-MB-435 it was > 100 µM (inactive). Moreover, the GI50 in the assay with MOLT-4 was 83.9 µM (inactive); with NCI-H23, > 100 µM (inactive); in the assay on NCI-H460, > 100 µM (inactive); in the assay with OVCAR-4 it was > 100 µM (inactive); in the assay on SK-MEL-2, > 100 µM (inactive); in the assay with SNB-75, > 100 µM (inactive).

As to `COc1ccccc1/C=C1/Sc2scc(CC(=O)Nc3ccccc3)[n+]2C1=O`, the GI50 in the assay with 786-0 was 28.6 µM (inactive); in the assay with A549 it was 31.5 µM (inactive); with ACHN, 28.9 µM (inactive); in the assay on BT-549, 15.3 µM (inactive); with CAKI-1 it was 53 µM (inactive); in the assay with COLO 205, 20.4 µM (inactive). Besides, the GI50 with DU-145 is 27.7 µM (inactive); with HCT-15, 26.6 µM; with HOP-62, 34 µM (inactive); in the assay with IGROV-1, 38 µM (inactive); in the assay on MDA-MB-231, 23 µM (inactive); in the assay on MDA-MB-435, 28.4 µM (inactive). Besides, the GI50 with MOLT-4 is 17.2 µM (inactive); in the assay on NCI-H23 it was 28.6 µM (inactive); with NCI-H460, 29.5 µM (inactive); in the assay with OVCAR-4, 21 µM (inactive); with SK-MEL-2, 19.1 µM (inactive); with SNB-75, 26.9 µM (inactive).

For the origin of these results see ChEMBL document CHEMBL1201862, “PubChem BioAssay data set” (2004).
